Assay results reported in patent US20210308101A1, “METHODS OF TREATING FIBROMYALGIA” (Aptinyx Inc., priority 2019, published 2021).

Experiments:
[1] = test system: subjects with fibromyalgia; assay: Numeric Pain Rating Scale (NPRS) daily pain scores; format: in vivo, human
Procedure: As used herein, “NPRS” is Numeric Pain Rating Scale Score. Numeric pain rating scale is a unidimensional segmented numeric version of the visual analog scale. The NPRS score assessing average pain intensity in the past 24 hours are based on an 11-point numerical rating scale/Likert scale ranging from 0 to 10. Where 0 represents no pain and 10 is the worst pain imaginable. Individual one-time scores were collected at the Screening and Day 1 visits on the CRF in order to confirm eligibility status for the subjects. These CRF pain scores were not used in the analysis tables. Instead, the pain scores collected by eRT via phone data collection were used in the analysis tables. eRT collected a variable if the call was completed per the requirements. […] The daily pain scores were summarized using the mean and were calculated for the analysis visits at Baseline and Weeks 1-7. There needed to be at least 4 daily pain scores collected within a post-baseline analysis visit in order to calculate the mean pain score for that visit. Each mean analysis visit score took on values ranging from 0 to 10 and was rounded off by one number after the decimal point. No missing data imputations were used for these individual values or computed means. The actual values/means, changes from baseline, and changes from treatment periods at each analysis visit were summarized using descriptive statistics. Additionally, the treatment group comparisons were analyzed using the paired t-test and nonparametric Wilcoxon signed-rank test. All data collected and derived were presented in subject listings. The pain scores collected by eRT and the CRF were presented in separate subject listings.
The collection methods of the NPRS score assessing worst pain intensity in the past 24 hours were the same as the efficacy data for the NPRS score assessing average pain intensity in the past 24 hours and was analyzed using the same techniques. The worst pain score must be greater than or equal to the average pain score for each assessment. In the event a worst pain score was less than the average pain, both pain scores were removed from calculating the mean weekly analysis visit scores. These collected pain scores were presented in the subject listings with a note that they would be removed from the analysis tables.
The timeline of events in the study are depicted in FIG. 1A. The study included up to a 30 day screening period, to confirm the diagnosis, assess eligibility, and complete the baseline magnetic resonance imaging (MRI). This was a single-blind, exploratory, placebo-controlled pilot study in which eligible subjects received 2 weeks of daily oral (QD) placebo, 2 weeks of NYX-2925 20 mg PO daily (low dose), 2 weeks of NYX-2925 200 mg PO daily (high dose), followed by a 1 week follow-up period. An MRI was conducted during the screening period, during the last week of the placebo period, during the last week of the NYX-2925 20 mg administration period, and during the last week of the NYX-2925 200 mg administration period. Study visits occurred during screening, then at day one and weeks 1, 2, 3, 4, 5, 6, and 7. An optional MRI was completed at the end of the follow-up period for consenting subjects. Study participants and study staff responsible for interpreting MRI results were blinded to the study drug administration.

[2] = test system: subjects with fibromyalgia; assay: Multidimensional Inventory of Subject Cognitive Impairment (MISCI); format: in vivo, human; conditions: not statistically significant
Excerpt: As used herein, “MISCI” is Multidimensional Inventory of Subject Cognitive Impairment. The MISCI is a 10-item assessment that measures cognitive function. The instrument examines 5 cognitive domains: mental clarity, memory, language, executive functioning, and attention/concentration. The first 6 items are positively worded and reflect perceived cognitive abilities and the last 4 items are negatively worded and reflect perceived cognitive difficulties. The same scoring metric is used for both response scales. However, the scores on items 7-10 must be reverse-coded prior to summing the responses to generate the total score due to the negative wording of these items. Here is a list of the categorical responses with the numeric values that make up the total score: • Positively Worded Items 1-6:“Not at All”=1; “A Little Bit”=2; “Somewhat”=3; “Quite a Bit”=4; “Very Much”=5 • Negatively Worded Items 7-10: “Never”=5; “Rarely”=4; “Sometimes”=3; “Often”=2; “Very Often”=1
The total score was calculated by the sum of all the 10 items ranging from 10 to 50, with higher scores indicating better perceived cognitive functioning (i.e. lower impairment). […] The MISCI assessment was collected and analyzed at visits Screening, Day 1, Week 2, Week 4, Week 6, and Follow-up (Week 7). […] Additionally, the treatment group comparisons were analyzed using the paired ttest and nonparametric Wilcoxon signed-rank test.

[3] = week six, after four weeks of NYX-2925, scale 0 to 10, n=19

CC(C)C(=O)N1CCC[C@]12CN([C@H](C(N)=O)[C@@H](C)O)C2=O [NYX-2925, (2S, 3R)-3-hydroxy-2-((R)-5-isobutyryl-1-oxo-2,5-diazaspiro[3.4]octan-2-yl)butanamide]
average daily pain, change from baseline ([1]; NYX-2925 20 mg): reductions from baseline
worse daily pain, change from baseline ([1]; NYX-2925 20 mg): reductions from baseline
NPRS average pain score, mean change ([1]; Week 2 (placebo) to Week 4 (NYX-2925 20 mg PO QD)): −0.10
NPRS average pain score, mean change ([1]; Week 2 (placebo) to Week 6 (NYX-2925 200 mg PO QD), p=0.0072): −0.66
NPRS worst pain score, mean change ([1]; Week 2 (placebo) to Week 6 (NYX-2925 200 mg), p=0.0360): −0.61
Average daily pain score, reduction from baseline [1, 3]: 1.1 point
Worst daily pain score, reduction from baseline [1, 3]: 1.0 point
MISCI Total score, mean change ([2]; Week 2 (placebo) to Week 4 (NYX-2925 20 mg)): 1.1
MISCI Total score, mean change ([2]; Week 2 (placebo) to Week 6 (NYX-2925 200 mg)): 0.9
